Experiments:
Assay in all cases: viability relative to DMSO control (fraction); higher = less drug effect (more viable cells)
Settings in all cases: 48 h
[1] = test system: primary FL patient cells (S087)
Outline: (§1)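 In 384-well plates with compounds pre-plated at five concentrations (one well per concentration), primary mononuclear tumour cells were plated at 4 × 10^4 cells per well. The cells came from blood or bone marrow by Ficoll isolation or from processed lymph node, and were used fresh or cryopreserved. Culture ran for 48 h at 37 °C and 5% CO2 in RPMI-1640 containing penicillin/streptomycin, L-glutamine and human serum. Viability was read as CellTiter-Glo luminescence, normalised to the median of 16 inner DMSO wells.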

[2] = test system: primary AML patient cells (S009)
Outline: as §1

[3] = test system: primary MCL patient cells (S063)
Outline: as §1

[4] = test system: primary AML patient cells (S079)
Outline: as §1

[5] = test system: primary ALL patient cells (S048)
Outline: as §1

[6] = test system: primary MCL patient cells (S068)
Outline: as §1

[7] = test system: primary AML patient cells (S091)
Outline: as §1

[8] = test system: primary CLL patient cells (S031)
Outline: as §1

[9] = test system: primary AML patient cells (S006)
Outline: as §1

[10] = test system: primary FL patient cells (S022)
Outline: as §1

[11] = test system: primary MCL patient cells (S041)
Outline: as §1

[12] = test system: primary AML patient cells (S072)
Outline: as §1

[13] = test system: primary AML patient cells (S037)
Outline: as §1

[14] = test system: primary AML patient cells (S056)
Outline: as §1

[15] = test system: primary AML patient cells (S089)
Outline: as §1

[16] = test system: primary MCL patient cells (S053)
Outline: as §1

[17] = test system: primary AML patient cells (S012)
Outline: as §1

[18] = test system: primary T-PLL patient cells (S008)
Outline: as §1

[19] = test system: primary DLBCL patient cells (S082)
Outline: as §1

[20] = test system: primary AML patient cells (S055)
Outline: as §1

`Cc1cc(Nc2ncc(Cl)c(Nc3ccccc3S(=O)(=O)C(C)C)n2)c(OC(C)C)cc1C1CCNCC1` [Ceritinib] was tested, and the viability ([1]; 0.024 µM) was 0.968, the viability ([1]; 0.12 µM) was 0.981 and the viability ([1]; 0.6 µM) was 0.883. It also gave a viability ([1]; 3 µM) of 0.734, a viability ([1]; 15 µM) of 0.0188 and a viability ([2]; 0.024 µM) of 0.937. It also gave a viability ([2]; 0.12 µM) of 0.903, a viability ([2]; 0.6 µM) of 0.823 and a viability ([2]; 3 µM) of 0.754. The viability ([2]; 15 µM) was 0.0293, the viability ([3]; 0.024 µM) was 0.967 and the viability ([3]; 0.12 µM) was 0.946. It also gave a viability ([3]; 0.6 µM) of 0.957, a viability ([3]; 3 µM) of 0.892 and a viability ([3]; 15 µM) of 0.0187. It also gave a viability ([4]; 0.024 µM) of 0.964, a viability ([4]; 0.12 µM) of 0.933 and a viability ([4]; 0.6 µM) of 0.844. It also gave a viability ([4]; 3 µM) of 0.738, a viability ([4]; 15 µM) of 0.0169 and a viability ([5]; 0.024 µM) of 0.855. The viability ([5]; 0.12 µM) was 0.83, the viability ([5]; 0.6 µM) was 0.634 and the viability ([5]; 3 µM) was 0.505. The viability ([5]; 15 µM) was 0.0153, the viability ([6]; 0.024 µM) was 0.94 and the viability ([6]; 0.12 µM) was 0.84. For the same molecule, the viability ([6]; 0.6 µM) was 0.88, the viability ([6]; 3 µM) was 1.02 and the viability ([6]; 15 µM) was 0.0227. It also gave a viability ([7]; 0.024 µM) of 0.947, a viability ([7]; 0.12 µM) of 0.77 and a viability ([7]; 0.6 µM) of 0.436. The viability ([7]; 3 µM) was 0.176, the viability ([7]; 15 µM) was 0.0224 and the viability ([8]; 0.024 µM) was 1. For the same molecule, the viability ([8]; 0.12 µM) was 0.899, the viability ([8]; 0.6 µM) was 0.838 and the viability ([8]; 3 µM) was 0.628. It also gave a viability ([8]; 15 µM) of 0.018, a viability ([9]; 0.024 µM) of 0.938 and a viability ([9]; 0.12 µM) of 0.924. For the same molecule, the viability ([9]; 0.6 µM) was 0.773, the viability ([9]; 3 µM) was 0.53 and the viability ([9]; 15 µM) was 0.0233. The viability ([10]; 0.024 µM) was 1.01, the viability ([10]; 0.12 µM) was 0.948 and the viability ([10]; 0.6 µM) was 0.846. It also gave a viability ([10]; 3 µM) of 0.555, a viability ([10]; 15 µM) of 0.0165 and a viability ([11]; 0.024 µM) of 0.966. For the same molecule, the viability ([11]; 0.12 µM) was 0.966, the viability ([11]; 0.6 µM) was 0.9 and the viability ([11]; 3 µM) was 0.654. The viability ([11]; 15 µM) was 0.0173, the viability ([12]; 0.024 µM) was 0.954 and the viability ([12]; 0.12 µM) was 0.939. For the same molecule, the viability ([12]; 0.6 µM) was 0.79, the viability ([12]; 3 µM) was 0.582 and the viability ([12]; 15 µM) was 0.0168. For the same molecule, the viability ([13]; 0.024 µM) was 1.5, the viability ([13]; 0.12 µM) was 0.922 and the viability ([13]; 0.6 µM) was 1.12. For the same molecule, the viability ([13]; 3 µM) was 0.742, the viability ([13]; 15 µM) was 0.296 and the viability ([14]; 0.024 µM) was 0.954. For the same molecule, the viability ([14]; 0.12 µM) was 1.41, the viability ([14]; 0.6 µM) was 0.654 and the viability ([14]; 3 µM) was 0.375. The viability ([14]; 15 µM) was 0.0154, the viability ([15]; 0.024 µM) was 0.974 and the viability ([15]; 0.12 µM) was 0.866. The viability ([15]; 0.6 µM) was 0.562, the viability ([15]; 3 µM) was 0.393 and the viability ([15]; 15 µM) was 0.0151. The viability ([16]; 0.024 µM) was 0.986, the viability ([16]; 0.12 µM) was 1.01 and the viability ([16]; 0.6 µM) was 1. The viability ([16]; 3 µM) was 0.832, the viability ([16]; 15 µM) was 0.0213 and the viability ([17]; 0.024 µM) was 1.05. For the same molecule, the viability ([17]; 0.12 µM) was 1.03, the viability ([17]; 0.6 µM) was 1.06 and the viability ([17]; 3 µM) was 1.01. For the same molecule, the viability ([17]; 15 µM) was 0.0296, the viability ([18]; 0.024 µM) was 0.991 and the viability ([18]; 0.12 µM) was 1.04. It also gave a viability ([18]; 0.6 µM) of 0.939, a viability ([18]; 3 µM) of 0.86 and a viability ([18]; 15 µM) of 0.0194. It also gave a viability ([19]; 0.024 µM) of 1.05, a viability ([19]; 0.12 µM) of 1.04 and a viability ([19]; 0.6 µM) of 0.617. It also gave a viability ([19]; 3 µM) of 0.321 and a viability ([19]; 15 µM) of 0.0186.

In the case of `C[C@@H](Oc1cc(-c2cnn(C3CCNCC3)c2)cnc1N)c1c(Cl)ccc(F)c1Cl` [Crizotinib], the viability ([1]; 0.024 µM) is reported as 0.979, the viability ([1]; 0.12 µM) is reported as 1.03 and the viability ([1]; 0.6 µM) is reported as 0.999. The viability ([1]; 3 µM) was 0.821, the viability ([1]; 15 µM) was 0.111 and the viability ([2]; 0.024 µM) was 0.984. The viability ([2]; 0.12 µM) was 0.895, the viability ([2]; 0.6 µM) was 0.761 and the viability ([2]; 3 µM) was 0.57. The viability ([2]; 15 µM) was 0.147, the viability ([3]; 0.024 µM) was 0.942 and the viability ([3]; 0.12 µM) was 1.03. For the same molecule, the viability ([3]; 0.6 µM) was 1, the viability ([3]; 3 µM) was 0.896 and the viability ([3]; 15 µM) was 0.254. The viability ([4]; 0.024 µM) was 0.977, the viability ([4]; 0.12 µM) was 0.953 and the viability ([4]; 0.6 µM) was 0.872. It also gave a viability ([4]; 3 µM) of 0.659, a viability ([4]; 15 µM) of 0.256 and a viability ([5]; 0.024 µM) of 0.999. It also gave a viability ([5]; 0.12 µM) of 1.04, a viability ([5]; 0.6 µM) of 0.989 and a viability ([5]; 3 µM) of 0.638. It also gave a viability ([5]; 15 µM) of 0.0947, a viability ([6]; 0.024 µM) of 0.989 and a viability ([6]; 0.12 µM) of 1.22. It also gave a viability ([6]; 0.6 µM) of 1.58, a viability ([6]; 3 µM) of 1.72 and a viability ([6]; 15 µM) of 0.816. It also gave a viability ([20]; 0.024 µM) of 0.948, a viability ([20]; 0.12 µM) of 0.954 and a viability ([20]; 0.6 µM) of 0.999. The viability ([20]; 3 µM) was 0.683, the viability ([20]; 15 µM) was 0.524 and the viability ([7]; 0.024 µM) was 0.922. It also gave a viability ([7]; 0.12 µM) of 0.97, a viability ([7]; 0.6 µM) of 0.817 and a viability ([7]; 3 µM) of 0.249. For the same molecule, the viability ([7]; 15 µM) was 0.0707, the viability ([8]; 0.024 µM) was 1.1 and the viability ([8]; 0.12 µM) was 1.08. The viability ([8]; 0.6 µM) was 1.12, the viability ([8]; 3 µM) was 0.712 and the viability ([8]; 15 µM) was 0.194. The viability ([9]; 0.024 µM) was 0.944, the viability ([9]; 0.12 µM) was 0.926 and the viability ([9]; 0.6 µM) was 0.695. The viability ([9]; 3 µM) was 0.491, the viability ([9]; 15 µM) was 0.18 and the viability ([10]; 0.024 µM) was 1.09. The viability ([10]; 0.12 µM) was 1.06, the viability ([10]; 0.6 µM) was 1.09 and the viability ([10]; 3 µM) was 0.959. It also gave a viability ([10]; 15 µM) of 0.377, a viability ([11]; 0.024 µM) of 0.97 and a viability ([11]; 0.12 µM) of 1. The viability ([11]; 0.6 µM) was 0.879, the viability ([11]; 3 µM) was 0.79 and the viability ([11]; 15 µM) was 0.221. It also gave a viability ([12]; 0.024 µM) of 0.903, a viability ([12]; 0.12 µM) of 0.983 and a viability ([12]; 0.6 µM) of 0.838. The viability ([12]; 3 µM) was 0.602, the viability ([12]; 15 µM) was 0.127 and the viability ([13]; 0.024 µM) was 0.974. It also gave a viability ([13]; 0.12 µM) of 0.982, a viability ([13]; 0.6 µM) of 1.01 and a viability ([13]; 3 µM) of 0.937. The viability ([13]; 15 µM) was 0.586, the viability ([14]; 0.024 µM) was 1.13 and the viability ([14]; 0.12 µM) was 0.919. For the same molecule, the viability ([14]; 0.6 µM) was 1.07, the viability ([14]; 3 µM) was 0.857 and the viability ([14]; 15 µM) was 0.084. For the same molecule, the viability ([15]; 0.024 µM) was 0.935, the viability ([15]; 0.12 µM) was 0.93 and the viability ([15]; 0.6 µM) was 0.722. The viability ([15]; 3 µM) was 0.359, the viability ([15]; 15 µM) was 0.0318 and the viability ([17]; 0.024 µM) was 1. The viability ([17]; 0.12 µM) was 1.06, the viability ([17]; 0.6 µM) was 0.999 and the viability ([17]; 3 µM) was 0.992. It also gave a viability ([17]; 15 µM) of 0.163, a viability ([18]; 0.024 µM) of 0.983 and a viability ([18]; 0.12 µM) of 1.02. It also gave a viability ([18]; 0.6 µM) of 0.969, a viability ([18]; 3 µM) of 0.955 and a viability ([18]; 15 µM) of 0.655. For the same molecule, the viability ([19]; 0.024 µM) was 0.975, the viability ([19]; 0.12 µM) was 0.989 and the viability ([19]; 0.6 µM) was 1.01. It also gave a viability ([19]; 3 µM) of 0.916 and a viability ([19]; 15 µM) of 0.36.
